{"source": "patent US9137987B2", "about": "“Moderated release aquatic herbicide formulations” (SePro Corporation, priority 2011, dated 2015)", "key": {"[1]": {"system": "fish", "conditions": "cited from earlier work"}, "[2]": {"system": "Eurasian watermilfoil", "experiment": "14C herbicide uptake study, shoot exposure", "format": "in vivo, Myriophyllum spicatum", "excerpt": "Plants were allowed to equilibrate overnight prior to treatment. […] Plants were separated into aboveground and belowground segments. […] After drying, plants were weighed and biomass recorded."}, "[3]": {"system": "Eurasian watermilfoil", "experiment": "14C-triclopyr uptake study, root exposure", "format": "in vivo, Myriophyllum spicatum", "conditions": "root exposure, 200,000 dpm 14C-triclopyr", "protocol": "Threshold absorption is reached within 12-24 hours for below ground tissue and near-maximum translocation to aboveground tissue is reached within 48 hours.\nPrior to the experiment, plants were transplanted into glass jars filled with water plus a diluted growth media (Hoagland's Solution) and an eicosane wax plug was added to separate aboveground and belowground portions of the plant. Plants were allowed to equilibrate in this solution for 5 days. The root zone of each plant was treated with 200,000 dpm of 14C-triclopyr. Plants were then moved into 3 gallon tanks with other treated plants. Treatments were replicated 3 times and harvested at 12, 24, 48, 96, 192 HAT. Upon harvest, plants were separated into aboveground and belowground portions, dried, weighed and biomass recorded."}, "[4]": {"system": "hydrilla", "conditions": "Hydrilla verticillata (hydrilla), in vivo", "quoted_text": "Eurasian watermilfoil or hydrilla apical fragments were collected from infested field sites and grown in topsoil cultures in greenhouse conditions until needed for uptake experiments. For uptake studies, 15 cm apical fragments were planted in glass jars in topsoil with a sand cap. Plants were allowed to grow in 30 L tanks until rooted (˜14 days). Prior to experiments plants were removed from water and agarose gel (1.5%) was added to each sand cap surface in each jar to avoid root exposure. Three plants of each species were then placed in 4 L plastic containers containing 3 L of dechlorinated tap water. Plants were allowed to equilibrate overnight prior to treatment. During the study, plants were maintained at room temperature (25° C.) under grow lights. Six containers were treated for each experiment using the following aboveground (i.e., above gel layer and into shoot section) treatments of ^14C-radiolabeled herbicide: Fluridone—10 ppb, Penoxsulam—10 ppb, Triclopyr—1,000 ppb (10 ppb ^14C, remainder ‘cold’ material). All radiolabeled dosing of 10 ppb equated to 222,000 DPM of 14C herbicide. The selected total herbicide rates corresponded to typical use rates for these three aquatic herbicides. […] After drying, plants were weighed and biomass recorded. Plants were then burned using a biological sample oxidizer and radioactivity quantified using liquid scintillation spectroscopy (LSS). […]"}, "[5]": {"system": "curly-leaf pondweed", "experiment": "Greenhouse concentration and exposure trial on curly-leaf pondweed", "format": "in vivo, Potamogeton crispus", "excerpt": "Error bars are +1 standard deviation (n=3).\nRelative to control of invasive curly-leaf pondweed (or CLP), greenhouse studies of penoxsulam concentration and exposure requirements to achieve control of this species have documented that exposure periods of 3-7 days to 3-6 ppb penoxsulam can provide effective control. FIG. 10 presents results of a representative greenhouse trial of penoxsulam treatment of CLP. 13-cm diameter pots were filled with potting soil amended with Osmocote slow release fertilizer (14-14-14). Four apical CLP tips, harvested from a culture at the SRTC, were planted into each pot. A one-inch sand cap was placed over the potting soil and submersed into 54 gallon tubs to allow for grow-out. At 19 days after planting, the five tubs were treated with 0, 3, 6, 12, or 24 ppb penoxsulam. Three pots per treatment were pulled out and placed into a common grow-out tank at 1, 3, 7, and 14 days after treatment (DAT). Once the plants were allowed to grow out for 28 DAT the plants were harvested to determine aboveground dry weight (48 hours at 70° C.)."}, "[6]": {"conditions": "shoot exposure, triclopyr 1,000 ppb, FIG. 1A, hydrilla and Eurasian milfoil not distinguished in text"}}, "note": "“Also recorded” adds a separate entry of the source.", "data": [{"smiles": "CNC.O=C(O)COc1ccc(Cl)cc1Cl", "note": "[2,4-d dimethylamine salt]", "values": [{"measurement": "toxicity to creatures such as fish versus butoxyethyl ester of 2,4-d", "setting": "[1]; US EPA 2,4-D Re-Registration Eligibility Decision 2005", "value": "substantially less toxic"}]}, {"smiles": "O=C(O)COc1nc(Cl)c(Cl)cc1Cl", "note": "[triclopyr, 3,5,6-trichloro-2-pyridyloxyacetic acid]", "values": [{"measurement": "time to maximum uptake", "setting": "[2]; Myriophyllum spicatum (Eurasian watermilfoil), in vivo", "value": "≤ 96", "unit": "h"}, {"measurement": "dose-corrected maximum uptake versus fluridone and penoxsulam", "setting": "[2]; shoot exposure, Eurasian milfoil, FIG. 1B", "value": "Greater dose-corrected uptake; also recorded: much greater on a dose-corrected basis"}, {"measurement": "time to threshold levels in aboveground tissues", "setting": "[2]; [6]", "value": "48 to 96", "unit": "h"}, {"measurement": "time to threshold levels in belowground tissues", "setting": "[2]; [6]", "value": "6 to 12", "unit": "h"}, {"measurement": "time to near-maximum translocation to aboveground tissue", "setting": "[3]", "value": "≤ 48", "unit": "h"}, {"measurement": "time to threshold uptake in belowground tissue", "setting": "[3]", "value": "12 to 24", "unit": "h"}, {"measurement": "time to maximum uptake", "setting": "[4]", "value": "≤ 96", "unit": "h"}]}, {"smiles": "COc1cnc(OC)n2nc(NS(=O)(=O)c3c(OCC(F)F)cccc3C(F)(F)F)nc12", "note": "[penoxsulam, 2-(2,2-difluoroethoxy)-6-(trifluoromethyl)-N-(5,8-dimethoxy[1,2,4]triazolo-[1,5c]pyrimidin-2-yl)-benzenesulfonamide]", "values": [{"measurement": "exposure period providing effective control", "setting": "[5]; 3-6 ppb penoxsulam", "value": "3 to 7", "unit": "days"}, {"measurement": "penoxsulam concentration providing effective control", "setting": "[5]; exposure periods of 3-7 days", "value": "3-6 ppb"}]}, {"smiles": "CCN(CC)CC.O=C(O)COc1nc(Cl)c(Cl)cc1Cl", "note": "[Triclopyr triethylamine]", "values": [{"measurement": "toxicity to creatures such as fish versus butoxyethyl ester of triclopyr", "setting": "[1]; in vivo", "value": "substantially less toxic"}]}]}
